# Laboratory results published in PMC9243654 (Frontiers in Nutrition, 2022).
# Read-outs that look alike come from different tables or passages of the source.
# Key:
# in vitro = experiment: in vitro
# Protocol: The PAMPA-BBB assay was conducted according to the methodology followed by Di et al., with some modifications as described below ([15]). First, the BBB solution was prepared by dissolving 8 mg of PBL and 4 mg of cholesterol in 600 μl of n-dodecane. The initial donor solution was prepared by mixing 1 ml of extract (10 mg ml^−1 in EtOH) with 1 ml of buffer (PBS, pH = 7.4, 10 mM). The filter membrane of the donor plate was carefully coated with 5 μl of BBB solution. The acceptor plate was filled with 350 μl of buffer, and the donor plate was carefully assembled over the acceptor plate like a “sandwich.” Finally, the donor plate was filled with 350 μl of donor solution, covered, and incubated for 4 h at 37°C in the dark. After incubation time, 300 μl of the solution was taken from both plates, transferred to separate vials, and dried in the SpeedVac system at 40°C and 13 mbar pressure. Dried acceptor and donor solution were dissolved in 50 μl of pure EtOH before subjecting to UHPLC-Q-TOF-MS analysis. Permeability across in vitro BBB of the bioactive compound was measured according to Equation (1) ([25]), with some modifications in concentration rates.
# (1) Pe=-ln[1-CA(t)/Ce]/A^*(1/VD+1/VA)^*t
# Cequilibrium was calculated according to the following equation ([2]):
# (2) Cequilibrium=[CD(t)*VD+CA(t)*VA]/(VD+VA)
# [1] = ref PubChem database, cited from earlier work
# [2] = PAMPA, pH 7.4, PAMPA-BBB log Pe (cm s−1), compound within RSFE extract, 4 h, 37°C, PBS pH 7.4
# [3] = PAMPA, pH 7.4, PAMPA-BBB log Pe (cm s−1), compound within T33 extract, 4 h, 37°C, PBS pH 7.4
# [4] = compound within LPLE (Nothofagus pumilio, lenga PLE extract), classes based on Könczöl et al.
# [5] = compounds identified in LPLE extract
# [6] = PAMPA, pH 7.4, PAMPA-BBB log Pe (cm s−1)
# [7] = compounds of RSFE extract, octanol-water partition coefficient
# [8] = PAMPA, pH 7.4, PAMPA-BBB log Pe, compound within LPLE (Nothofagus pumilio, lenga PLE extract), N.D = not detected in acceptor
compound,measurement,setting,value
O=C(O)[C@]1(O)C[C@@H](O)[C@@H](O)[C@H](O)C1 [Quinic acid],Cross BBB potential,in vitro; PAMPA,-
same,Papp at 4 h,in vitro; [2],6.03 ×10⁻⁶ cm/s
same,Papp at 4 h,in vitro; [3],3.63 ×10⁻⁶ cm/s
same,Log P,[1]; compounds of T33 extract,−2.4
O=c1oc2c(O)c(O)cc3c(=O)oc4c(O)c(O)cc1c4c23 [Ellagic acid],Cross BBB potential,in vitro; PAMPA,-
Oc1ccc(/C=C/c2cc(O)cc3c2[C@@H](c2cc(O)cc(O)c2)[C@H](c2ccc(O)cc2)O3)cc1 [ε-Viniferin],Cross BBB potential,in vitro; compound within ASFE extract,-
same,Cross BBB potential,in vitro; [4],-
same,Log P,[1]; [5],5.4
same,Log P,[1]; compounds of ASFE extract,5.4
O=C(O)CCCCCCCCCCCCCCC(=O)O [Hexadecanedioic acid],Cross BBB potential,in vitro; compound within ASFE extract,-
same,Cross BBB potential,in vitro; [4],-
same,Log P,[1]; [5],5.4
same,Log P,[1]; compounds of ASFE extract,5.4
Caffeoylshikimic acid,Cross BBB potential,in vitro; PAMPA,++
same,PAMPA-BBB log Pe (cm s−1),"in vitro; PAMPA, 4 h, pH 7.4",−5.46 cm s−1
same,Log P,[1]; compounds of T33 extract,0.9
COc1cc(O)c2c(=O)cc(-c3ccc(O)cc3)oc2c1 [Genkwanin],Papp at 4 h,in vitro; [6],9.55 ×10⁻⁶ cm/s
COC(=O)[C@]12CCCC(C)(C)[C@@H]1CCc1cc(C(C)C)c(O)c(O)c12 [Methyl carnosate],Cross BBB potential,in vitro; PAMPA,++
same,Papp at 4 h,in vitro; [6],5.5 ×10⁻⁶ cm/s
same,Log P,[1]; [7],5.2
CC(C)c1cc2c(c(O)c1O)[C@@]13CCCC(C)(C)[C@@H]1[C@H](OC3=O)[C@H]2O [Rosmanol],Papp at 4 h,in vitro; [2],145 ×10⁻⁶ cm/s
same,Cross BBB potential,in vitro; compound within RSFE extract,+++ (log Pe > −4.5)
same,Log P,[1]; [7],3.4
CC1(C)C[C@@H]2C3=CC[C@@H]4[C@@]5(C)CC[C@H](O)[C@@](C)(C=O)C5CC[C@@]4(C)[C@]3(C)CC[C@@]2(C(=O)O)C[C@@H]1O (stereo partly drawn) [Lucyin A],Cross BBB potential,in vitro; PAMPA,++
same,PAMPA-BBB log Pe,"in vitro; compound within LPLE (Nothofagus pumilio, lenga PLE extract), N.D = not detected in acceptor",−4.74 cm s−1
same,Log P,[1]; [5],5.3
same,Log P,[1]; compounds of ASFE extract,5.3
COc1cc(C(=O)O)cc(OC)c1O [Syringic acid],Papp at 4 h,in vitro; [8],0.145 ×10⁻⁶ cm/s
same,Cross BBB potential,in vitro; compound within RSFE extract,-
same,Log P,[1]; [5],1.0
same,Log P,[1]; compounds of ASFE extract,1.0
same,Log P,[1]; compounds of KD extract,1.0
same,Log P,[1]; [7],1.0
O=c1cc(-c2ccc(O)c(O)c2)oc2cc(O)cc(O)c12 [Luteolin],Papp at 4 h,in vitro; [6],38 ×10⁻⁶ cm/s
CC(CC(=O)C[C@@H](C)[C@H]1C[C@H](O)[C@@]2(C)C3=C(C(=O)C[C@]12C)[C@@]1(C)CC[C@H](O)C(C)(C)[C@@H]1CC3)C(=O)O (stereo partly drawn) [Ganolucidic acid B],Cross BBB potential,in vitro; compound within ASFE extract,-
same,Cross BBB potential,in vitro; [4],-
same,Log P,[1]; [5],3.8
same,Log P,[1]; compounds of ASFE extract,3.8
O=C(/C=C/c1ccc(O)cc1)O[C@@H](C(=O)O)[C@@H](O)C(=O)O [Coutaric acid],Cross BBB potential,in vitro; compound within ASFE extract,-
same,Cross BBB potential,in vitro; [4],-
same,Log P,[1]; [5],0.4
same,Log P,[1]; compounds of ASFE extract,0.4
Kalandaigremoside C,Cross BBB potential,in vitro; compound within KD extract,-
same,Log P,[1]; compounds of KD extract,7.2
O=C(O)C[C@H]1CCC(=O)[C@@H]1C/C=C\CCO [12- Hydroxyjasmonic acid],Cross BBB potential,in vitro; PAMPA,+++
same,PAMPA-BBB log Pe (cm s−1),"in vitro; PAMPA, 4 h, pH 7.4",−4.06 cm s−1
same,Log P,[1]; [7],0.4
Kalandaigremoside B,Cross BBB potential,in vitro; compound within KD extract,-
same,Log P,[1]; compounds of KD extract,7.2
"Bersaldegenin-1,3,5-orthoacetate",Cross BBB potential,in vitro; compound within KD extract,-
same,Log P,[1]; compounds of KD extract,4.87
C[C@@H]1O[C@@H](OC[C@H]2O[C@@H](Oc3c(-c4ccc(O)c(O)c4)oc4cc(O)cc(O)c4c3=O)[C@H](O)[C@@H](O)[C@@H]2O)[C@H](O)[C@H](O)[C@H]1O [Rutin],Cross BBB potential,in vitro; PAMPA,-
CC(C)c1cc2c(c(O)c1O)[C@@]1(C(=O)O)CCCC(C)(C)[C@@H]1CC2 [Carnosic acid],Cross BBB potential,in vitro; PAMPA,++ (key: -: not detected in acceptor; +: log Pe > −6.5; ++: log Pe > −5.5; +++: log Pe > −4.5)
same,Papp,in vitro; [6],13.5 ×10⁻⁶ cm/s
O=C(O)/C=C/c1ccc(O)c(O)c1 [Caffeic acid],Cross BBB potential,in vitro; PAMPA,-
O=c1c(O)c(-c2cc(O)c(O)c(O)c2)oc2cc(O)cc(O)c12 [Myricetin],Cross BBB potential,in vitro; PAMPA,-
COc1cc(C(=O)O)ccc1O[C@@H]1O[C@H](CO)[C@@H](O)[C@H](O)[C@H]1O [Vanillic acid-O-hexoside],Cross BBB potential,in vitro; compound within RSFE extract,+++ (log Pe > −4.5)
same,PAMPA-BBB log Pe (cm s−1),"in vitro; compound within RSFE extract, 4 h, 37°C, PBS pH 7.4",−4.19 cm s−1
"O=C(/C=C/c1ccc(O)c(O)c1)O[C@@H]1C[C@](O)(C(=O)O)C[C@@H](O)[C@H]1O [Caffeoylquinic acid (chlorogenic acid), Caffeoylquinic acid]",Papp at 4 h,in vitro; [6],10.2 ×10⁻⁶ cm/s
O=C1C[C@@H](c2ccc(O)c(O)c2)Oc2cc(O)cc(O)c21 [Eriodictyol],Log P,[1]; [7],2.0
COc1cc(/C=C/C(=O)O)ccc1O [Ferulic acid],Cross BBB potential,in vitro; PAMPA,++ (key: -: not detected in acceptor; +: log Pe > −6.5; ++: log Pe > −5.5; +++: log Pe > −4.5)
same,PAMPA-BBB log Pe (cm s−1),"in vitro; PAMPA, pH 7.4",−4.68 cm s−1
same,Cross BBB potential,in vitro; compound within ASFE extract,-
CCOC(=O)/C=C/c1ccc(O)c(O)c1 [Ethyl caffeate],Papp at 4 h,in vitro; [3],18.6 ×10⁻⁶ cm/s
same,Cross BBB potential,in vitro; compound within T33 extract,++ (log Pe > −5.5)
O=c1ccc2ccc(O)cc2o1 [Umbelliferone],Papp at 4 h,"in vitro; PAMPA, pH 7.4",38 ×10⁻⁶ cm/s
same,Cross BBB potential,in vitro; compound within RSFE extract,+++ (log Pe > −4.5)
O=c1c(O[C@@H]2O[C@H](CO)[C@@H](O)[C@H](O)[C@H]2O)c(-c2ccc(O)c(O)c2)oc2cc(O)cc(O)c12 [Isoquercitrin],Cross BBB potential,in vitro; PAMPA,-
Oc1cc(O)c2c(c1)O[C@H](c1ccc(O)c(O)c1)[C@H](O)[C@H]2c1c(O)cc(O)c2c1O[C@H](c1ccc(O)c(O)c1)[C@H](O)C2 [Procyanidin B2],Cross BBB potential,in vitro; PAMPA,-
C[C@@H]1O[C@@H](Oc2c(-c3ccc(O)cc3)oc3cc(O)cc(O)c3c2=O)[C@H](O)[C@H](O)[C@H]1O [Afzelin],Cross BBB potential,in vitro; PAMPA,-
COc1cc2ccc(=O)oc2cc1O [Scopoletin],Papp at 4 h,in vitro; [6],75.9 ×10⁻⁶ cm/s
same,Papp at 4 h,in vitro; [8],28.2 ×10⁻⁶ cm/s
O=C(/C=C/c1ccc(O)c(O)c1)O[C@H](Cc1ccc(O)c(O)c1)C(=O)O [Rosmarinic acid],Log P,[1]; [7],2.4
same,Log P,[1]; compounds of T33 extract,2.4
C[C@H]1[C@H](C)CC[C@]2(C(=O)O)CC[C@]3(C)C(=CC[C@@H]4[C@@]5(C)C[C@@H](O)[C@H](O)[C@@](C)(CO)[C@@H]5CC[C@]43C)[C@H]12 [Asiatic acid],Cross BBB potential,in vitro; PAMPA,+++
same,Papp at 4 h,in vitro; [6],64.6 ×10⁻⁶ cm/s
COc1ccc(-c2cc(=O)c3c(O)cc(O)cc3o2)cc1O [Diosmetin],Cross BBB potential,in vitro; PAMPA,++ (key: -: not detected in acceptor; +: log Pe > −6.5; ++: log Pe > −5.5; +++: log Pe > −4.5)
same,Papp,in vitro; [6],31.6 ×10⁻⁶ cm/s
O=C(O)c1cc(O)c(O)c(O)c1 [Gallic acid],Papp at 4 h,in vitro; [8],69.2 ×10⁻⁶ cm/s
COc1cc(C=O)ccc1O [Vanillin],Papp at 4 h,in vitro; [6],70.8 ×10⁻⁶ cm/s
same,Papp at 4 h,in vitro; [8],33.1 ×10⁻⁶ cm/s
